Test results as given in PubChem BioAssay (NCI).
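Compound exposure: 48 hours, 5 concentrations, 96-well plates. At the GI50, growth is halved. TGI: total growth inhibition.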

Legend:
Test in all cases: growth of human tumour cells (NCI), 48 h
786-0 renal = system: 786-0 renal
A498 renal = system: A498 renal
A549 NSCLC = system: A549 NSCLC
ACHN renal = system: ACHN renal
BT-549 breast = system: BT-549 breast
CAKI-1 renal = system: CAKI-1 renal
CCRF-CEM leukemia = system: CCRF-CEM leukemia
COLO 205 colon = system: COLO 205 colon
DU-145 prostate = system: DU-145 prostate
EKVX NSCLC = system: EKVX NSCLC
HCC-2998 colon = system: HCC-2998 colon
HCT-116 colon = system: HCT-116 colon
HCT-15 colon = system: HCT-15 colon
HL-60(TB) leukemia = system: HL-60(TB) leukemia
HOP-62 NSCLC = system: HOP-62 NSCLC
HOP-92 NSCLC = system: HOP-92 NSCLC
HS 578T breast = system: HS 578T breast
HT29 colon = system: HT29 colon
IGROV1 ovarian = system: IGROV1 ovarian
K-562 leukemia = system: K-562 leukemia
KM12 colon = system: KM12 colon
LOX IMVI melanoma = system: LOX IMVI melanoma
M14 melanoma = system: M14 melanoma
MALME-3M melanoma = system: MALME-3M melanoma
MCF7 breast = system: MCF7 breast
MDA-MB-231 breast = system: MDA-MB-231 breast
MDA-MB-435 = system: MDA-MB-435
MOLT-4 leukemia = system: MOLT-4 leukemia
NCI-H226 lung = system: NCI-H226 lung
NCI-H23 lung = system: NCI-H23 lung
NCI-H460 lung = system: NCI-H460 lung
NCI-H522 lung = system: NCI-H522 lung
NCI/ADR-RES ovarian = system: NCI/ADR-RES ovarian
OVCAR-3 ovarian = system: OVCAR-3 ovarian
OVCAR-4 ovarian = system: OVCAR-4 ovarian
OVCAR-5 ovarian = system: OVCAR-5 ovarian
OVCAR-8 ovarian = system: OVCAR-8 ovarian
PC-3 prostate = system: PC-3 prostate
RPMI-8226 leukemia = system: RPMI-8226 leukemia
RXF 393 renal = system: RXF 393 renal
SF-268 CNS = system: SF-268 CNS
SF-295 CNS = system: SF-295 CNS
SF-539 CNS = system: SF-539 CNS
SK-MEL-2 melanoma = system: SK-MEL-2 melanoma
SK-MEL-28 melanoma = system: SK-MEL-28 melanoma
SK-MEL-5 melanoma = system: SK-MEL-5 melanoma
SK-OV-3 ovarian = system: SK-OV-3 ovarian
SN12C renal = system: SN12C renal
SNB-19 CNS = system: SNB-19 CNS
SNB-75 CNS = system: SNB-75 CNS
SR leukemia = system: SR leukemia
SW-620 colon = system: SW-620 colon
T-47D breast = system: T-47D breast
TK-10 renal = system: TK-10 renal
U251 CNS = system: U251 CNS
UACC-257 melanoma = system: UACC-257 melanoma
UACC-62 melanoma = system: UACC-62 melanoma
UO-31 renal = system: UO-31 renal

`Cc1cc(C(=O)Nc2cc(Oc3ccc4nc(NC(=O)C5CC5)cn4n3)ccc2C)n(C)n1` was tested. Which GI50 (786-0 renal) did it give?
The GI50 was over 10 µM.

What about the TGI (786-0 renal) of the same compound?
The TGI was over 10 µM.

And the GI50 (A498 renal)?
The GI50 was over 10 µM.

And the TGI (A498 renal)?
The TGI was over 10 µM.

And the GI50 (A549 NSCLC)?
The GI50 was over 10 µM.

And the TGI (A549 NSCLC)?
Its TGI is over 10 µM.

What about the GI50 (ACHN renal) of the same compound?
The GI50 was over 10 µM.

What about the TGI (ACHN renal) of the same compound?
Its TGI is over 10 µM.

And the GI50 (BT-549 breast)?
The GI50 was 6.42 µM.

What about the TGI (BT-549 breast) of the same compound?
Its TGI is over 10 µM.

What about the GI50 (CAKI-1 renal) of the same compound?
Its GI50 is over 10 µM.

What about the TGI (CAKI-1 renal) of the same compound?
The TGI was over 10 µM.

What about the GI50 (CCRF-CEM leukemia) of the same compound?
The GI50 was over 10 µM.

What about the TGI (CCRF-CEM leukemia) of the same compound?
The TGI was over 10 µM.

And the GI50 (COLO 205 colon)?
The GI50 was over 10 µM.

And the TGI (COLO 205 colon)?
Its TGI is over 10 µM.

And the GI50 (DU-145 prostate)?
Its GI50 is over 10 µM.

And the TGI (DU-145 prostate)?
The TGI was over 10 µM.

What about the GI50 (EKVX NSCLC) of the same compound?
Its GI50 is over 10 µM.

And the TGI (EKVX NSCLC)?
The TGI was over 10 µM.

And the GI50 (HCC-2998 colon)?
Its GI50 is over 10 µM.

And the TGI (HCC-2998 colon)?
Its TGI is over 10 µM.

And the GI50 (HCT-116 colon)?
Its GI50 is 5.66 µM.

And the TGI (HCT-116 colon)?
Its TGI is over 10 µM.

And the GI50 (HCT-15 colon)?
The GI50 was 6.49 µM.

And the TGI (HCT-15 colon)?
The TGI was over 10 µM.

And the GI50 (HL-60(TB) leukemia)?
The GI50 was 9.56 µM.

And the TGI (HL-60(TB) leukemia)?
The TGI was over 10 µM.

What about the GI50 (HOP-62 NSCLC) of the same compound?
Its GI50 is over 10 µM.

What about the TGI (HOP-62 NSCLC) of the same compound?
Its TGI is over 10 µM.

What about the GI50 (HOP-92 NSCLC) of the same compound?
Its GI50 is 3.27 µM.

What about the TGI (HOP-92 NSCLC) of the same compound?
The TGI was over 10 µM.

What about the GI50 (HS 578T breast) of the same compound?
Its GI50 is 7.48 µM.

What about the TGI (HS 578T breast) of the same compound?
Its TGI is over 10 µM.

And the GI50 (HT29 colon)?
Its GI50 is over 10 µM.

And the TGI (HT29 colon)?
The TGI was over 10 µM.

What about the GI50 (IGROV1 ovarian) of the same compound?
The GI50 was 5.06 µM.

And the TGI (IGROV1 ovarian)?
Its TGI is over 10 µM.

And the GI50 (K-562 leukemia)?
The GI50 was 0.555 µM.

What about the TGI (K-562 leukemia) of the same compound?
Its TGI is over 10 µM.

And the GI50 (KM12 colon)?
The GI50 was over 10 µM.

What about the TGI (KM12 colon) of the same compound?
The TGI was over 10 µM.

What about the GI50 (LOX IMVI melanoma) of the same compound?
The GI50 was over 10 µM.

And the TGI (LOX IMVI melanoma)?
The TGI was over 10 µM.

And the GI50 (M14 melanoma)?
Its GI50 is 5.51 µM.

What about the TGI (M14 melanoma) of the same compound?
Its TGI is over 10 µM.

And the GI50 (MALME-3M melanoma)?
Its GI50 is over 10 µM.

And the TGI (MALME-3M melanoma)?
The TGI was over 10 µM.

What about the GI50 (MCF7 breast) of the same compound?
The GI50 was 6.41 µM.

And the TGI (MCF7 breast)?
Its TGI is over 10 µM.

What about the GI50 (MDA-MB-231 breast) of the same compound?
The GI50 was over 10 µM.

What about the TGI (MDA-MB-231 breast) of the same compound?
Its TGI is over 10 µM.

And the GI50 (MDA-MB-435)?
Its GI50 is 3.22 µM.

And the TGI (MDA-MB-435)?
The TGI was over 10 µM.

What about the GI50 (MOLT-4 leukemia) of the same compound?
Its GI50 is over 10 µM.

What about the TGI (MOLT-4 leukemia) of the same compound?
Its TGI is over 10 µM.

And the GI50 (NCI-H226 lung)?
The GI50 was 0.86 µM.

And the TGI (NCI-H226 lung)?
Its TGI is over 10 µM.

What about the GI50 (NCI-H23 lung) of the same compound?
Its GI50 is over 10 µM.

And the TGI (NCI-H23 lung)?
The TGI was over 10 µM.

And the GI50 (NCI-H460 lung)?
Its GI50 is over 10 µM.

What about the TGI (NCI-H460 lung) of the same compound?
The TGI was over 10 µM.

What about the GI50 (NCI-H522 lung) of the same compound?
The GI50 was over 10 µM.

What about the TGI (NCI-H522 lung) of the same compound?
The TGI was over 10 µM.

And the GI50 (NCI/ADR-RES ovarian)?
Its GI50 is over 10 µM.

And the TGI (NCI/ADR-RES ovarian)?
The TGI was over 10 µM.

And the GI50 (OVCAR-3 ovarian)?
Its GI50 is over 10 µM.

What about the TGI (OVCAR-3 ovarian) of the same compound?
The TGI was over 10 µM.

What about the GI50 (OVCAR-4 ovarian) of the same compound?
The GI50 was over 10 µM.

What about the TGI (OVCAR-4 ovarian) of the same compound?
Its TGI is over 10 µM.

What about the GI50 (OVCAR-5 ovarian) of the same compound?
Its GI50 is over 10 µM.

What about the TGI (OVCAR-5 ovarian) of the same compound?
Its TGI is over 10 µM.

And the GI50 (OVCAR-8 ovarian)?
Its GI50 is over 10 µM.

And the TGI (OVCAR-8 ovarian)?
Its TGI is over 10 µM.

And the GI50 (PC-3 prostate)?
Its GI50 is over 10 µM.

And the TGI (PC-3 prostate)?
Its TGI is over 10 µM.

And the GI50 (RPMI-8226 leukemia)?
The GI50 was over 10 µM.

What about the TGI (RPMI-8226 leukemia) of the same compound?
Its TGI is over 10 µM.

What about the GI50 (RXF 393 renal) of the same compound?
Its GI50 is 7.46 µM.

And the TGI (RXF 393 renal)?
Its TGI is over 10 µM.

And the GI50 (SF-268 CNS)?
The GI50 was over 10 µM.

What about the TGI (SF-268 CNS) of the same compound?
Its TGI is over 10 µM.

What about the GI50 (SF-295 CNS) of the same compound?
The GI50 was over 10 µM.

And the TGI (SF-295 CNS)?
The TGI was over 10 µM.

What about the GI50 (SF-539 CNS) of the same compound?
The GI50 was 3.35 µM.

What about the TGI (SF-539 CNS) of the same compound?
The TGI was over 10 µM.

What about the GI50 (SK-MEL-2 melanoma) of the same compound?
Its GI50 is over 10 µM.

What about the TGI (SK-MEL-2 melanoma) of the same compound?
Its TGI is over 10 µM.

What about the GI50 (SK-MEL-28 melanoma) of the same compound?
The GI50 was over 10 µM.

What about the TGI (SK-MEL-28 melanoma) of the same compound?
Its TGI is over 10 µM.

And the GI50 (SK-MEL-5 melanoma)?
Its GI50 is over 10 µM.

And the TGI (SK-MEL-5 melanoma)?
Its TGI is over 10 µM.

And the GI50 (SK-OV-3 ovarian)?
Its GI50 is over 10 µM.

What about the TGI (SK-OV-3 ovarian) of the same compound?
The TGI was over 10 µM.

What about the GI50 (SN12C renal) of the same compound?
Its GI50 is over 10 µM.

And the TGI (SN12C renal)?
The TGI was over 10 µM.

And the GI50 (SNB-19 CNS)?
The GI50 was over 10 µM.

And the TGI (SNB-19 CNS)?
The TGI was over 10 µM.

And the GI50 (SNB-75 CNS)?
The GI50 was over 10 µM.

And the TGI (SNB-75 CNS)?
Its TGI is over 10 µM.

What about the GI50 (SR leukemia) of the same compound?
Its GI50 is 2.26 µM.

What about the TGI (SR leukemia) of the same compound?
Its TGI is over 10 µM.

And the GI50 (SW-620 colon)?
The GI50 was over 10 µM.

And the TGI (SW-620 colon)?
Its TGI is over 10 µM.

What about the GI50 (T-47D breast) of the same compound?
The GI50 was over 10 µM.

And the TGI (T-47D breast)?
Its TGI is over 10 µM.

What about the GI50 (TK-10 renal) of the same compound?
Its GI50 is over 10 µM.

And the TGI (TK-10 renal)?
The TGI was over 10 µM.

And the GI50 (U251 CNS)?
The GI50 was over 10 µM.

And the TGI (U251 CNS)?
Its TGI is over 10 µM.

And the GI50 (UACC-257 melanoma)?
The GI50 was over 10 µM.

What about the TGI (UACC-257 melanoma) of the same compound?
The TGI was over 10 µM.

And the GI50 (UACC-62 melanoma)?
The GI50 was over 10 µM.

What about the TGI (UACC-62 melanoma) of the same compound?
Its TGI is over 10 µM.

And the GI50 (UO-31 renal)?
Its GI50 is over 10 µM.

What about the TGI (UO-31 renal) of the same compound?
The TGI was over 10 µM.
